Assay results from ChEMBL document CHEMBL3091293, “The synthesis and biodistribution of [(11)C]metformin as a PET probe to study hepatobiliary transport mediated by the multi-drug and toxin extrusion transporter 1 (MATE1) in vivo” (Bioorg Med Chem, 2013).

What was measured:
Type in all cases: ADME, organism-based
[1] = tested on: Thyroid gland; assay: Biodistribution in thyroid of ddY mouse at 5.6 +/- 2.1 MBq, iv measured per gram of tissue at 90 mins by gamma-ray counting analysis; conditions: in vivo, 1.5 h
[2] = tested on: Thyroid gland; assay: Biodistribution in thyroid of ddY mouse at 5.6 +/- 2.1 MBq, iv measured per gram of tissue at 45 mins by gamma-ray counting analysis; conditions: in vivo, 0.75 h
[3] = tested on: Thyroid gland; assay: Biodistribution in thyroid of ddY mouse at 5.6 +/- 2.1 MBq, iv measured per gram of tissue at 35 mins by gamma-ray counting analysis; conditions: in vivo
[4] = tested on: Blood; assay: Metabolic stability in blood of mouse at 5 +/- 2.3 MBq/kg, iv measured until 30 to 60 mins by HPLC analysis in presence of MATE1 inhibitor pyrimethamine; conditions: in vivo
[5] = tested on: Spleen; assay: Biodistribution in spleen of ddY mouse at 5.6 +/- 2.1 MBq, iv measured per gram of tissue at 45 mins by gamma-ray counting analysis; conditions: in vivo, 0.75 h
[6] = tested on: Mus musculus; assay: Biodistribution in stomach wall of ddY mouse at 5.6 +/- 2.1 MBq, iv measured per gram of tissue at 15 mins by gamma-ray counting analysis; conditions: in vivo, 0.25 h
[7] = tested on: Liver; assay: Biodistribution in liver of ddY mouse at 14.6 +/- 2.1 MBq, iv measured per gram of tissue at 14 mins by PET image analysis; conditions: in vivo
[8] = tested on: Mus musculus; assay: Biodistribution in stomach wall of ddY mouse at 5.6 +/- 2.1 MBq, iv measured per gram of tissue at 45 mins by gamma-ray counting analysis; conditions: in vivo, 0.75 h
[9] = tested on: Liver; assay: Biodistribution in liver of ddY mouse at 14.6 +/- 2.1 MBq, iv measured per gram of tissue at 5 mins by PET image analysis; conditions: in vivo
[10] = tested on: Mus musculus; assay: Biodistribution in small intestine wall of ddY mouse at 5.6 +/- 2.1 MBq, iv measured per gram of tissue at 35 mins by gamma-ray counting analysis; conditions: in vivo
[11] = tested on: Kidney; assay: Biodistribution in kidney of ddY mouse at 5.6 +/- 2.1 MBq, iv measured per gram of tissue at 90 mins by gamma-ray counting analysis; conditions: in vivo, 1.5 h
[12] = tested on: Mus musculus; assay: Biodistribution in urinary bladder/urine of ddY mouse at 5.6 +/- 2.1 MBq, iv measured per gram of tissue at 15 mins by gamma-ray counting analysis; conditions: in vivo, 0.25 h
[13] = tested on: Mus musculus; assay: Biodistribution in small intestine wall of ddY mouse at 5.6 +/- 2.1 MBq, iv measured per gram of tissue at 45 mins by gamma-ray counting analysis; conditions: in vivo, 0.75 h
[14] = tested on: Mus musculus; assay: Biodistribution in urinary bladder/urine of ddY mouse at 5.6 +/- 2.1 MBq, iv measured per gram of tissue at 35 mins by gamma-ray counting analysis; conditions: in vivo
[15] = tested on: Kidney; assay: Biodistribution in kidney of ddY mouse at 5.6 +/- 2.1 MBq, iv measured per gram of tissue at 15 mins by gamma-ray counting analysis; conditions: in vivo, 0.25 h
[16] = tested on: Spleen; assay: Biodistribution in spleen of ddY mouse at 5.6 +/- 2.1 MBq, iv measured per gram of tissue at 30 mins by gamma-ray counting analysis; conditions: in vivo, 0.5 h
[17] = tested on: Pancreas; assay: Biodistribution in pancreas of ddY mouse at 5.6 +/- 2.1 MBq, iv measured per gram of tissue at 60 mins by gamma-ray counting analysis; conditions: in vivo, 1 h
[18] = tested on: Spleen; assay: Biodistribution in spleen of ddY mouse at 5.6 +/- 2.1 MBq, iv measured per gram of tissue at 90 mins by gamma-ray counting analysis; conditions: in vivo, 1.5 h
[19] = tested on: Thyroid gland; assay: Biodistribution in thyroid of ddY mouse at 5.6 +/- 2.1 MBq, iv measured per gram of tissue at 30 mins by gamma-ray counting analysis; conditions: in vivo, 0.5 h
[20] = tested on: Mus musculus; assay: Biodistribution in large intestine wall of ddY mouse at 5.6 +/- 2.1 MBq, iv measured per gram of tissue at 90 mins by gamma-ray counting analysis; conditions: in vivo, 1.5 h
[21] = tested on: Pancreas; assay: Biodistribution in pancreas of ddY mouse at 5.6 +/- 2.1 MBq, iv measured per gram of tissue at 15 mins by gamma-ray counting analysis; conditions: in vivo, 0.25 h
[22] = tested on: Spleen; assay: Biodistribution in spleen of ddY mouse at 5.6 +/- 2.1 MBq, iv measured per gram of tissue at 60 mins by gamma-ray counting analysis; conditions: in vivo, 1 h
[23] = tested on: Lung; assay: Biodistribution in lung of ddY mouse at 5.6 +/- 2.1 MBq, iv measured per gram of tissue at 15 mins by gamma-ray counting analysis; conditions: in vivo, 0.25 h
[24] = tested on: Mus musculus; assay: Biodistribution in remaining body parts of ddY mouse at 14.6 +/- 2.1 MBq, iv measured per gram of tissue at 27.5 mins by PET image analysis; conditions: in vivo
[25] = tested on: Liver; assay: Biodistribution in liver of ddY mouse at 5.6 +/- 2.1 MBq, iv measured per gram of tissue at 60 mins by gamma-ray counting analysis; conditions: in vivo, 1 h
[26] = tested on: Mus musculus; assay: Biodistribution in remaining body parts of ddY mouse at 5.6 +/- 2.1 MBq, iv measured per gram of tissue at 35 mins by gamma-ray counting analysis; conditions: in vivo
[27] = tested on: Spleen; assay: Biodistribution in spleen of ddY mouse at 5.6 +/- 2.1 MBq, iv measured per gram of tissue at 15 mins by gamma-ray counting analysis; conditions: in vivo, 0.25 h
[28] = tested on: Liver; assay: Drug uptake in liver of ddY mouse at 127 +/- 35 MBq/kg, iv after 2 mins by microPET image analysis; conditions: in vivo
[29] = tested on: Mus musculus; assay: Biodistribution in heart wall of ddY mouse at 5.6 +/- 2.1 MBq, iv measured per gram of tissue at 35 mins by gamma-ray counting analysis; conditions: in vivo
[30] = tested on: Kidney; assay: Biodistribution in kidney of ddY mouse at 5.6 +/- 2.1 MBq, iv measured per gram of tissue at 35 mins by gamma-ray counting analysis; conditions: in vivo
[31] = tested on: Mus musculus; assay: Biodistribution in stomach wall of ddY mouse at 5.6 +/- 2.1 MBq, iv measured per gram of tissue at 30 mins by gamma-ray counting analysis; conditions: in vivo, 0.5 h
[32] = tested on: Thyroid gland; assay: Biodistribution in thyroid of ddY mouse at 5.6 +/- 2.1 MBq, iv measured per gram of tissue at 15 mins by gamma-ray counting analysis; conditions: in vivo, 0.25 h
[33] = Drug uptake in urinary bladder of ddY mouse at 127 +/- 35 MBq/kg, iv measured up to 4.5 mins by microPET image analysis; conditions: in vivo, 0.075 h
[34] = tested on: Lung; assay: Biodistribution in lung of ddY mouse at 5.6 +/- 2.1 MBq, iv measured per gram of tissue at 30 mins by gamma-ray counting analysis; conditions: in vivo, 0.5 h
[35] = tested on: Liver; assay: Drug uptake in liver of ddY mouse at 127 +/- 35 MBq/kg, iv measured up to 6 to 7 mins by microPET image analysis in presence of MATE1 inhibitor pyrimethamine; conditions: in vivo
[36] = tested on: Kidney; assay: Drug uptake in kidney of ddY mouse at 127 +/- 35 MBq/kg, iv measured up to 4.5 mins by microPET image analysis in presence of MATE1 inhibitor pyrimethamine; conditions: in vivo, 0.075 h
[37] = tested on: Kidney; assay: Drug uptake in kidney of ddY mouse at 127 +/- 35 MBq/kg, iv measured up to 4.5 mins by microPET image analysis; conditions: in vivo, 0.075 h

## CN([11CH3])C(=N)NC(=N)N
[1]
  Drug uptake: 0.013 %ID
[2]
  Drug uptake: 0.002 %ID
[3]
  Drug uptake: 0.003 %ID
[4]
  Stability: Stable
[5]
  Drug uptake: 0.123 %ID
[6]
  Drug uptake: 0.347 %ID
[7]
  Drug uptake: 1.796 %ID
[8]
  Drug uptake: 0.08 %ID
[9]
  Drug uptake: 4.327 %ID
[10]
  Drug uptake: 2.06 %ID
[11]
  Drug uptake: 0.236 %ID
[12]
  Drug uptake: 35.204 %ID
[13]
  Drug uptake: 2.128 %ID
[14]
  Drug uptake: 74.695 %ID
[15]
  Drug uptake: 1.181 %ID
[16]
  Drug uptake: 0.162 %ID
[17]
  Drug uptake: 0.281 %ID
[18]
  Drug uptake: 0.087 %ID
[19]
  Drug uptake: 0.009 %ID
[20]
  Drug uptake: 0.24 %ID
[21]
  Drug uptake: 0.295 %ID
[22]
  Drug uptake: 0.139 %ID
[23]
  Drug uptake: 0.254 %ID
[24]
  Drug uptake: 28.532 %ID
[25]
  Drug uptake: 1.631 %ID
[26]
  Drug uptake: 20.55 %ID
[27]
  Drug uptake: 0.144 %ID
[28]
  Drug uptake: Not Active
[29]
  Drug uptake: 0.049 %ID
[30]
  Drug uptake: 0.274 %ID
[31]
  Drug uptake: 0.173 %ID
[32]
  Drug uptake: 0.008 %ID
[33]
  Drug uptake: Active
[34]
  Drug uptake: 0.218 %ID
[35]
  Drug uptake: Active
[36]
  Drug uptake: Active
[37]
  Drug uptake: Active
